*1 amine or outer side, *2 acyl side, *3 side chain or, on linkers, in order; H or OH if unused. Where a SMILES comes first, the peptide text is derived from it. Bridges are numbered along the chain shown (N, C = ends). [ ]: non-standard residue; d: D form. Acbc(trans-1,3) = O=C([C@H]1C[C@H](N[*:1])C1)[*:2]; Acbc(cis-1,3) = O=C([C@H]1C[C@@H](N[*:1])C1)[*:2]; X1 = O=C([C@@H]1CCC[C@@H]1N[*:1])[*:2]
Columns and labels:
[1] = target: T1, IFN-γ/IFNGR1 protein–protein interaction (Homo sapiens, UniProt P15260); assay: IFNGR1 inhibition assay using AlphaLISA; assay type: biochemical; settings: four-parameter dose–response fit, n = 3
T1 construct: purchased ACROBiosystems
T1 sequence (P15260 18-245 limits assumed): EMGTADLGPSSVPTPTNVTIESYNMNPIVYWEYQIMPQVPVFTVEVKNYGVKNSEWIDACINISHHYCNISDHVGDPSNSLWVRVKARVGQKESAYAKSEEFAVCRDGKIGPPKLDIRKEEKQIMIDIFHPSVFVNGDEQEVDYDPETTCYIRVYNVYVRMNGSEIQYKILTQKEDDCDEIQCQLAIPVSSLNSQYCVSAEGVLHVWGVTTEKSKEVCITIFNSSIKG
Protocol: IFNGR1 inhibition assay using AlphaLISA
The inhibitory activity of peptides against IFN-γ/IFNGR1 protein–protein interaction (PPI) was determined by AlphaLISA.5 Peptides, proteins, and beads were diluted in AlphaLISA immunoassay buffer (PerkinElmer, AL000C). 3.6 μL of 5 nM Fc-tagged IFNGR1 and 3.6 μL of synthetic peptides were mixed in AlphaPlate-384 Shallow Well (PerkinElmer) and preincubated at 25 °C for 10 min. 3.6 μL of 15 nM biotin-tagged IFN-γ was then added to the mix and incubated at 25 °C for 20 min. 3.6 μL each human IgG acceptor beads (PerkinElmer) and streptavidin donor beads (PerkinElmer) were added to the above mix and incubated at 25 °C for 30 min in dark place. Emission at 615 nm was measured […]
by EnSpire Multimode Plate Reader (PerkinElmer). The fraction of bound IFN-γ/IFNGR1 was calculated by the intensity of emission in the presence of peptide divided by that in the absence of […]
peptide. […]
Puromycin. Normocin, Blasticidin, Zeocin, and Puromycin were excluded when conducting the experiments. To evaluate the cellular activity of peptides, peptide mixtures were added to 50,000 cells/well in a flat-bottom 96-well plate and pre-incubated for 30 min at 37 °C before stimulation.
Subsequently, 1 ng/mL of recombinant IFN-γ (InvivoGen) was added to each well in a final reaction volume of 200 μL, followed by incubation for 20 h at 37 °C. 20 μL of supernatants from the induced cells was added to 180 μL Q U A N T I-Blue TM solution (InvivoGen). After further incubation for 3 h at 37 °C, the expression levels of the secreted embryonic alkaline phosphatase (SEAP) were determined by reading the O.D. at 650 nm on a Tecan M1000 PRO microplate reader (Tecan Group) and normalized to the non-treated well. IC50 value was analyzed by a normalized dose-response curve fitting by using GraphPad Prism 9.
HEK-DualTM IFN-γ cells were used for the cell viability assay. 10,000 cells/well were added to each well in a flat-bottom 96-well plate. After 24 h, peptide mixtures were added to each well in a final volume of 100 μL. After further incubation for 24 h, 10 μL CCK-8 reagent (Dojindo) was added to […]

Fc-tagged human IFNGR1 = target: T2, Fc-tagged human IFNGR1 (Homo sapiens, UniProt P15260); assay: Binding kinetics and affinity to IFNGR1 by surface plasmon resonance (SPR); settings: SPR, 25 °C, 1:1 binding model; for Kd: read-out: KD; for kon: single-cycle kinetics, read-out: ka
T2 construct: purchased ACROBiosystems
T2 sequence (P15260 18-489): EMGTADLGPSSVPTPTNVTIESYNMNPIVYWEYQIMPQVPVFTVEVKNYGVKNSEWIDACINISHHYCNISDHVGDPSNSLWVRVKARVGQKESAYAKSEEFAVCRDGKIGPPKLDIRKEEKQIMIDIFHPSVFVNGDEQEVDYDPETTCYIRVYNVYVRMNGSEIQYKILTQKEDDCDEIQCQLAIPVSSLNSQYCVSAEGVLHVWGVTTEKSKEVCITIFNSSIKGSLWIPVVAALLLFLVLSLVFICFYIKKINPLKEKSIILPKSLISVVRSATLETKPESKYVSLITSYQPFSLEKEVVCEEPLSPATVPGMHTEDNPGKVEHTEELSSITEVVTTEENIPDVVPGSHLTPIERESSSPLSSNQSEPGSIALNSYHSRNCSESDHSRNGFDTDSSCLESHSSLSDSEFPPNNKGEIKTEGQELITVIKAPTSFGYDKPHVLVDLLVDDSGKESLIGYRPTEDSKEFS
Protocol: Binding affinities of IA1 and IA2 against IFNGR1 were evaluated by surface plasmon resonance (SPR) (Table 1 and SI Figure S6A). […] To investigate the contribution of the N-terminal [yVPβ^1RR] motif and β^1 residue in IA1, three scrambled peptides IA1s1–3 and a variant IA1β^14A were synthesized and evaluated. […] We next evaluated inhibitory activities of IA1 and IA2 against the ligand–receptor PPI between IFN-γ and IFNGR1 using AlphaLISA (Table 1 and SI Figure S7).[37] […] We also determined the serum half-lives of IA1 and IA2, considering peptidase resistance as an important factor for therapeutic peptides.[24] A sample peptide and a peptidase-resistant internal standard peptide were coincubated in human serum at 37 °C, and the relative amount of the remaining sample peptide was estimated by LC/MS. […]
Evaluation of binding affinity of peptides by surface plasmon resonance The binding affinities of selected peptides and IFNGR1 were analyzed by surface plasmon resonance (SPR) using a Biacore T200 instrument (Cytiva) at 25 °C with the following running buffer: 10 mM Tris-HCl (pH 8.0), 150 mM NaCl, 0.05% (v/v) Tween 20 , and 0.1% (v/v) DMSO. Fc-tagged IFNGR1 was immobilized on a series S sensor chip protein G (Cytiva) to a surface density of 1,200–1,600 response units following the immobilization protocols provided by Cytiva. The kinetic constants were determined by a single-cycle kinetics method by the injection of five different concentrations (twofold dilution series) of each peptide at a flow rate of 30 μL/min. The resulting sensorgrams were fitted to the standard 1:1 interaction model and analyzed using Biacore evaluation software. […]

SMILES	IC50 [1] [nM]	Kd (Fc-tagged human IFNGR1) [nM]	kon (Fc-tagged human IFNGR1) [M⁻¹ s⁻¹]
CC(C)[C@@H]1NC(=O)[C@@H](Cc2ccc(O)cc2)NC(=O)CSC[C@H](C(N)=O)NC(=O)[C@H](C)NC(=O)[C@H](Cc2c[nH]cn2)NC(=O)[C@H](CCCNC(=N)N)NC(=O)[C@H](CCCNC(=N)N)NC(=O)CNC(=O)[C@H]2C[C@@H](C2)NC(=O)[C@H](Cc2c[nH]cn2)NC(=O)[C@H](CC(N)=O)NC(=O)[C@H](CCCNC(=N)N)NC(=O)[C@H](CCCNC(=N)N)NC(=O)[C@@H]2CCC[C@@H]2NC(=O)[C@H](C)NC1=O [IB2γ^19γ^2, ^AcyVAβ^1RRNHγ^2GRRHAc-NH2] ({CH2CO}-[dY]VA[X1]RRNH[Acbc(trans-1,3)]GRRHA[dC]-NH2; thioether N-15)	680 ± 50	68 ± 12	75000 ± 25000
CC(C)[C@@H]1NC(=O)[C@@H](Cc2ccc(O)cc2)NC(=O)CSC[C@H](C(N)=O)NC(=O)[C@H](CC(N)=O)NC(=O)[C@H](Cc2c[nH]cn2)NC(=O)[C@H](CCCNC(=N)N)NC(=O)[C@H]2C[C@@H](C2)NC(=O)[C@H]([C@@H](C)O)NC(=O)[C@H](Cc2c[nH]cn2)NC(=O)[C@@H]2CCCN2C(=O)[C@H](CO)NC(=O)[C@H](CCCNC(=N)N)NC(=O)[C@H](CCCNC(=N)N)NC(=O)[C@@H]2CCC[C@@H]2NC(=O)[C@@H]2CCCN2C1=O [IB5, ^AcyVPβ^1RRSPHTγ^2RHNc-NH2] ({CH2CO}-[dY]VP[X1]RRSPHT[Acbc(trans-1,3)]RHN[dC]-NH2; thioether N-15)	220 ± 10	130 ± 20	17000 ± 5000
CC(C)[C@@H]1NC(=O)[C@@H](Cc2ccc(O)cc2)NC(=O)CSC[C@H](C(N)=O)NC(=O)[C@H](CCCNC(=N)N)NC(=O)[C@H](CO)NC(=O)[C@H](CCCNC(=N)N)NC(=O)[C@H](Cc2c[nH]cn2)NC(=O)CNC(=O)[C@H]2C[C@H](C2)NC(=O)[C@H](Cc2c[nH]cn2)NC(=O)[C@H](CC(N)=O)NC(=O)[C@H](CCCNC(=N)N)NC(=O)[C@H](CCCNC(=N)N)NC(=O)[C@@H]2CCC[C@@H]2NC(=O)[C@H](C)NC1=O [IB1, ^AcyVAβ^1RRNHγ^1GHRSRc-NH2] ({CH2CO}-[dY]VA[X1]RRNH[Acbc(cis-1,3)]GHRSR[dC]-NH2; thioether N-15)	12 ± 3	11	650000 ± 20000
CC(C)[C@@H]1NC(=O)[C@@H](Cc2ccc(O)cc2)NC(=O)CSC[C@H](C(N)=O)NC(=O)[C@H](CCCNC(=N)N)NC(=O)[C@H](CO)NC(=O)[C@H](CCCNC(=N)N)NC(=O)[C@H](Cc2c[nH]cn2)NC(=O)CNC(=O)[C@H]2C[C@H](C2)NC(=O)[C@H](Cc2c[nH]cn2)NC(=O)[C@H](CC(N)=O)NC(=O)[C@H](CCCNC(=N)N)NC(=O)[C@H](CCCNC(=N)N)NC(=O)[C@H](C)NC(=O)[C@H](C)NC1=O [IB1β^14A, ^AcyVAA RRNHγ^1GHRSRc-NH2] ({CH2CO}-[dY]VAARRNH[Acbc(cis-1,3)]GHRSR[dC]-NH2; thioether N-15)	> 100000	> 10000	–
CC(C)[C@@H]1NC(=O)[C@@H](Cc2ccc(O)cc2)NC(=O)CSC[C@H](C(N)=O)NC(=O)[C@H](CC(N)=O)NC(=O)[C@H](CO)NC(=O)[C@H](CCCNC(=N)N)NC(=O)[C@H]2C[C@H](C2)NC(=O)[C@H](Cc2c[nH]cn2)NC(=O)[C@H](CC(N)=O)NC(=O)[C@H]([C@@H](C)O)NC(=O)[C@H](Cc2c[nH]cn2)NC(=O)[C@H](CCCNC(=N)N)NC(=O)[C@H](CCCNC(=N)N)NC(=O)[C@@H]2CCC[C@@H]2NC(=O)[C@@H]2CCCN2C1=O [IA1, ^AcyVPβ^1RRHTNHγ^1RSNc-NH2] ({CH2CO}-[dY]VP[X1]RRHTNH[Acbc(cis-1,3)]RSN[dC]-NH2; thioether N-15)	87 ± 15	87 ± 2	180000
CC(C)[C@@H]1NC(=O)[C@@H](Cc2ccc(O)cc2)NC(=O)CSC[C@H](C(N)=O)NC(=O)[C@H](C)NC(=O)[C@H](CO)NC(=O)[C@H](CCCNC(=N)N)NC(=O)[C@H](CCCNC(=N)N)NC(=O)CNC(=O)[C@H]2C[C@H](C2)NC(=O)[C@H](Cc2c[nH]cn2)NC(=O)[C@H](CC(N)=O)NC(=O)[C@H](CCCNC(=N)N)NC(=O)[C@H](CCCNC(=N)N)NC(=O)[C@@H]2CCC[C@@H]2NC(=O)[C@H](C)NC1=O [IB3, ^AcyVAβ^1RRNHγ^1GRRSAc-NH2] ({CH2CO}-[dY]VA[X1]RRNH[Acbc(cis-1,3)]GRRSA[dC]-NH2; thioether N-15)	12	9.5 ± 0.7	930000 ± 420000
CC(C)[C@@H]1NC(=O)[C@@H](Cc2ccc(O)cc2)NC(=O)CSC[C@H](C(N)=O)NC(=O)[C@H](C)NC(=O)[C@H](CO)NC(=O)[C@H](CCCNC(=N)N)NC(=O)[C@H](CCCNC(=N)N)NC(=O)CNC(=O)[C@H]2C[C@@H](C2)NC(=O)[C@H](Cc2c[nH]cn2)NC(=O)[C@H](CC(N)=O)NC(=O)[C@H](CCCNC(=N)N)NC(=O)[C@H](CCCNC(=N)N)NC(=O)[C@@H]2CCC[C@@H]2NC(=O)[C@H](C)NC1=O [IB3γ^19γ^2, ^AcyVAβ^1RRNHγ^2GRRSAc-NH2] ({CH2CO}-[dY]VA[X1]RRNH[Acbc(trans-1,3)]GRRSA[dC]-NH2; thioether N-15)	350 ± 30	49 ± 7	470000 ± 320000

Source: PMC11229689, “In Vitro Selection of Macrocyclic L-α/D-α/β/γ-Hybrid Peptides Targeting IFN-γ/IFNGR1 Protein–Protein Interaction” (Journal of the American Chemical Society, 2024)
